Experiment [1] deals with viral glycoproteins (GRFN-1 binding; gp120LAV chip). Briefly: SPR competition of saccharides with GRFN-1 binding. The arrangement: species or system HIV-1. The text has this:
α-D-mannopyranose (Man), L-fucopyranose (Fuc), α-D-galactopyranose (Gal), sialic acid (N-acetyl-neuraminic acid, Neu5Ac), N-acetyl-glucosamine (GlcNAc) and Man3(GlcNAc)2, a core pentasaccharide found in most N-linked oligosaccharides. All of these saccharides were purchased from Sigma-Aldrich (St. Louis, MO).

The next experiment concerns HIV-1 (BaL). It is filed as cell-based. As to conditions: TZM-bl assay; for EC50: HIV-1 BaL (R5), 24 hr, luciferase activity.
Another experiment has as its system CXCR4 (HIV-1IIIB). Put plainly: p24^gag antigen release assay using PBMCs, CXCR4 strain. It is filed as cell-based. The conditions noted are these: PBMC based p24^gag antigen release assay.
The test system of a further experiment is CCR5 (HIV-1BAL). Put plainly: p24^gag antigen release assay using PBMCs, CCR5 strain. It is filed as cell-based. The conditions noted are these: PBMC based p24^gag antigen release assay.
The next experiment deals with HIV-1. As to conditions: read-out: average EC50; anti-HIV inhibitory activity; ref [20], [21]; cited from earlier work. The text has this:
Preventing HIV-1 infection is the primary goal of pre- and post-exposure prophylaxis of HIV. Prophylactic modalities that block HIV-1 entry would be particularly valuable, because latent HIV-1 infections are typically refractory to therapeutic or immunological interventions [1]–[9]. […] Most anti-HIV lectins have been identified in and isolated from natural sources. They include cyanovirin-N [11], [12] and scytovirin [13] from cyanobac ...

Entries after “also recorded” stand apart in the source; their conditions may differ. Like-named read-outs stand apart in the source and are kept apart here.

We go through eight compounds from publication PMC3002932 (PLoS ONE, 2010).

Method for HIV-1 (BaL): The ability of the analogs to inhibit HIV infection was determined with an assay that determines viral infectivity with an LTR-mediated luciferase reporter construct [37]. In brief, TZM-bl reporter cells are HeLa-derived JC53-BL cells that express high levels of CD4, CXCR4, and CCR5. They also contain reporter cassettes for luciferase and β-galactosidase, both driven by the HIV-1 long terminal repeat [38]). 24 hr after these reporter cells were exposed to R5 lab-adapted strains of HIV-1 (BaL) in the presence of peptides, protection was measured as % reduction in luciferase activity (relative light units) compared to cells infected with virus and peptide vehicle alone.

As for Man3GlcNAc2, the “competition with binding of GRFN-1 to viral glycoproteins (in words)” value (shortened to “competition with binding”) in experiment [1] (pH = 7.4) was “interacted with all of these sugars, except fucose”.
Take `CC(=O)N[C@H]1[C@H]([C@H](O)[C@H](O)CO)OC(O)(C(=O)O)C[C@@H]1O` (stereo partly drawn) [sialic acid, N-acetyl-neuraminic acid]: the “competition with binding” value in experiment [1] (pH = 7.4) is “interacted with all of these sugars, except fucose; also recorded: less profound”.
`CC[C@H](C)[C@@H]1NC(=O)CNC(=O)[C@H](CCCCN)NC(=O)CNC(=O)[C@@H]2CSSC[C@H](NC1=O)C(=O)N[C@@H](CCCNC(=N)N)C(=O)N[C@H]1CSSC[C@H](NC(=O)[C@H](CCCNC(=N)N)NC(=O)[C@@H]3CSSC[C@H](NC(=O)[C@H]([C@@H](C)CC)NC1=O)C(=O)NCC(=O)N[C@@H](CCCNC(=N)N)C(=O)NCC(=O)N[C@@H]([C@@H](C)CC)C(=O)N3)C(=O)N[C@@H]([C@@H](C)CC)C(=O)N2` [RC-101, reference compound]: the EC50 – broadly, the concentration that produces a half-maximal response – in the experiment with HIV-1 (BaL) is 3400 nM.
Take `O=C[C@H](O)[C@@H](O)[C@@H](O)[C@H](O)CO` [galactose, α-D-galactopyranose]: the “competition with binding” value in experiment [1] (pH = 7.4) was “interacted with all of these sugars, except fucose”.
Take `OC[C@H]1O[C@H](O)[C@@H](O)[C@@H](O)[C@@H]1O` [mannose, α-D-mannopyranose]: the “competition with binding” value in experiment [1] (pH = 7.4) is reported as “interacted with all of these sugars, except fucose; also recorded: the most effective competitors”; in experiment [1] (pH = 7.4, listed as D-Mannose), “especially potent inhibitor that could almost completely abrogate binding of GRFN-1 to the viral glycoproteins”.
griffithsin: the “antiviral activity (in words)” value in the experiment on CXCR4 (HIV-1IIIB) and with CCR5 (HIV-1BAL) was “maintained their antiviral activity” each time. Moreover, the values for the EC50 in the experiment on HIV-1 and in the experiment with HIV-1 (BaL) (griffithsin) were 0.04 nM and 0.0196 ± 0.0019 nM, respectively.
Consider `CC(=O)N[C@@H]1[C@@H](O)[C@H](O)[C@@H](CO)O[C@H]1O` [GlcNAc, N-acetyl-glucosamine], for which the “competition with binding” value in experiment [1] (pH = 7.4) is reported as “interacted with all of these sugars, except fucose; also recorded: the most effective competitors”.
As for “Cha-SC-Chg-R-Chg-RSGSY-Cha-DR-Ch\g-R-Chg-(D)Cys-CONH2 (disulfide) [GRFN-2, otherwise identical peptide with an Asn to Arg substitution]”, in the experiment on HIV-1 (BaL) (dose response, Figure 4), the “antiviral activity (in words)” value is on record as “considerably less active than GRFN-1”.
